Data: ChEMBL document CHEMBL1201862, “PubChem BioAssay data set” (2004)
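A five-concentration, 48-hour dose response in 96-well plates underlies each endpoint, interpolated linearly between surrounding concentrations. GI50 is the concentration that inhibits growth by half.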 Active and inactive are the calls of the source. Rule as the data show it: active = GI50 up to about 1.1 µM and inactive = higher.

How the values were obtained:
Experiment in all cases: DTP human tumour cell line panel, 48 h
NCI-H522 = tested on: NCI-H522
HOP-92 = tested on: HOP-92
SR = tested on: SR
SNB-19 = tested on: SNB-19
UACC-62 = tested on: UACC-62
NCI-H23 = tested on: NCI-H23
SK-MEL-2 = tested on: SK-MEL-2
HOP-62 = tested on: HOP-62
COLO 205 = tested on: COLO 205
SK-MEL-28 = tested on: SK-MEL-28
SF-295 = tested on: SF-295
TK-10 = tested on: TK-10
SF-539 = tested on: SF-539
SN12C = tested on: SN12C
K562 = tested on: K562
HT-29 = tested on: HT-29
LOX IMVI = tested on: LOX IMVI

SMILES	GI50 (NCI-H522)	GI50 (HOP-92)	GI50 (SR)	GI50 (SNB-19)	GI50 (UACC-62)	GI50 (NCI-H23)	GI50 (SK-MEL-2)	GI50 (HOP-62)	GI50 (COLO 205)	GI50 (SK-MEL-28)	GI50 (SF-295)	GI50 (TK-10)	GI50 (SF-539)	GI50 (SN12C)	GI50 (K562)	GI50 (HT-29)	GI50 (LOX IMVI)
COC(=O)[C@@]12OC[C@]34C([C@@H](O)C1O)[C@@]1(C)CC(=O)C(O)=C(C)C1C[C@H]3OC(=O)[C@H](OC(=O)/C=C(/c1ccccc1)C(F)(F)F)[C@H]42 (some centres undefined)	2.42 µM (inactive)	2.15 µM (inactive)	0.655 µM (active)	3.62 µM (inactive)	2.05 µM (inactive)	1.48 µM (inactive)	8.26 µM (inactive)	5.96 µM (inactive)	6.67 µM (inactive)	4.72 µM (inactive)	4.18 µM (inactive)	7.74 µM (inactive)	1 µM (active)	8.69 µM (inactive)	4.93 µM (inactive)	2.18 µM (inactive)	
CC12C(=O)N(CCN)C(=O)C1C1c3ccccc3C2c2ccccc21 (centres undefined)	> 100 µM (inactive)	28.9 µM (inactive)		> 100 µM (inactive)	> 100 µM (inactive)	> 100 µM (inactive)	> 100 µM (inactive)	> 100 µM (inactive)	> 100 µM (inactive)	> 100 µM (inactive)	> 100 µM (inactive)	> 100 µM (inactive)	> 100 µM (inactive)	> 100 µM (inactive)	> 100 µM (inactive)	58.3 µM (inactive)	
CCOC(=O)C(C)(C)Oc1ccc2c(-c3ccc(Cl)cc3)cc(=O)oc2c1			> 100 µM (inactive)	> 100 µM (inactive)	> 100 µM (inactive)	> 100 µM (inactive)	> 100 µM (inactive)	> 100 µM (inactive)	> 100 µM (inactive)	> 100 µM (inactive)	> 100 µM (inactive)	> 100 µM (inactive)	> 100 µM (inactive)	> 100 µM (inactive)	> 100 µM (inactive)	> 100 µM (inactive)	> 100 µM (inactive)
CCOC(=O)C1=C(C)N(Cc2ccccc2)C(=O)C1CC#N (centres undefined)		20.7 µM (inactive)	49.8 µM (inactive)	> 100 µM (inactive)	80 µM (inactive)	> 100 µM (inactive)	> 100 µM (inactive)	> 100 µM (inactive)	> 100 µM (inactive)	> 100 µM (inactive)	> 100 µM (inactive)		> 100 µM (inactive)	> 100 µM (inactive)	70.3 µM (inactive)	> 100 µM (inactive)	
Nc1ccc(C(=O)N/C(=C\c2ccc3c(c2)OCO3)c2nc3c(O)nc(S)nc3[nH]2)cc1	> 100 µM (inactive)	75.5 µM (inactive)	> 100 µM (inactive)	> 100 µM (inactive)	> 100 µM (inactive)	> 100 µM (inactive)	> 100 µM (inactive)		> 100 µM (inactive)	> 100 µM (inactive)	> 100 µM (inactive)	> 100 µM (inactive)	> 100 µM (inactive)	> 100 µM (inactive)	> 100 µM (inactive)	> 100 µM (inactive)	
CC(=O)C1CC2(c3ccccc3)C(=O)c3ccccc3N2O1 (centres undefined)	> 100 µM (inactive)	> 100 µM (inactive)	> 100 µM (inactive)	> 100 µM (inactive)	> 100 µM (inactive)	> 100 µM (inactive)		> 100 µM (inactive)	> 100 µM (inactive)	> 100 µM (inactive)	> 100 µM (inactive)		> 100 µM (inactive)	> 100 µM (inactive)	> 100 µM (inactive)	> 100 µM (inactive)	
CCC(C)CC(C)CC(C)/C=C(\C)C1=C(C)CC(C)(O)O1 (centres undefined)	42.2 µM (inactive)	18.3 µM (inactive)			> 100 µM (inactive)	76.4 µM (inactive)			> 100 µM (inactive)	> 100 µM (inactive)		> 100 µM (inactive)	> 100 µM (inactive)	90.4 µM (inactive)	46.7 µM (inactive)	93.8 µM (inactive)	> 100 µM (inactive)
Cn1c2ccccc2n2c(=O)c3c(c(C#N)c12)CCCC3			> 100 µM (inactive)	> 100 µM (inactive)		> 100 µM (inactive)	> 100 µM (inactive)	> 100 µM (inactive)	> 100 µM (inactive)	> 100 µM (inactive)	> 100 µM (inactive)	> 100 µM (inactive)	> 100 µM (inactive)	> 100 µM (inactive)	> 100 µM (inactive)	> 100 µM (inactive)	> 100 µM (inactive)
CC1SC2=NC3=C(c4ccccc4C3=O)C(c3ccc(F)cc3)N2C1=O (centres undefined)	26.5 µM (inactive)	50.7 µM (inactive)		> 100 µM (inactive)	64.1 µM (inactive)	> 100 µM (inactive)	> 100 µM (inactive)	> 100 µM (inactive)	> 100 µM (inactive)	> 100 µM (inactive)	> 100 µM (inactive)	> 100 µM (inactive)	> 100 µM (inactive)	63.7 µM (inactive)	> 100 µM (inactive)	> 100 µM (inactive)	
CC[C@@H]1OC2(C)CC(S(=O)(=O)c3ccccc3)CC1O2 (some centres undefined)	> 100 µM (inactive)	> 100 µM (inactive)	> 100 µM (inactive)	> 100 µM (inactive)	> 100 µM (inactive)	> 100 µM (inactive)	> 100 µM (inactive)	> 100 µM (inactive)	> 100 µM (inactive)	> 100 µM (inactive)	> 100 µM (inactive)		> 100 µM (inactive)	> 100 µM (inactive)	> 100 µM (inactive)	> 100 µM (inactive)	
Nc1ccccc1[S+]([O-])c1ccccc1 (centres undefined)	> 100 µM (inactive)	39.2 µM (inactive)		> 100 µM (inactive)	> 100 µM (inactive)	> 100 µM (inactive)	> 100 µM (inactive)	> 100 µM (inactive)	> 100 µM (inactive)	> 100 µM (inactive)	> 100 µM (inactive)	> 100 µM (inactive)	> 100 µM (inactive)	> 100 µM (inactive)	> 100 µM (inactive)		> 100 µM (inactive)
C/C(=C\c1ccccc1)C(=O)c1c(C)cc(C)cc1C	> 100 µM (inactive)	> 100 µM (inactive)	> 100 µM (inactive)	> 100 µM (inactive)	> 100 µM (inactive)	> 100 µM (inactive)	> 100 µM (inactive)	> 100 µM (inactive)	> 100 µM (inactive)	> 100 µM (inactive)	> 100 µM (inactive)	> 100 µM (inactive)	> 100 µM (inactive)	> 100 µM (inactive)	> 100 µM (inactive)	> 100 µM (inactive)	
OC1=CN=COc2ccccc21		> 100 µM (inactive)		> 100 µM (inactive)	> 100 µM (inactive)	> 100 µM (inactive)	> 100 µM (inactive)	> 100 µM (inactive)	> 100 µM (inactive)	> 100 µM (inactive)	> 100 µM (inactive)	> 100 µM (inactive)	> 100 µM (inactive)	> 100 µM (inactive)	> 100 µM (inactive)	> 100 µM (inactive)	> 100 µM (inactive)
CC(=O)CC(=O)NC=O	> 100 µM (inactive)	> 100 µM (inactive)	> 100 µM (inactive)	> 100 µM (inactive)	> 100 µM (inactive)	> 100 µM (inactive)	> 100 µM (inactive)	> 100 µM (inactive)	> 100 µM (inactive)	> 100 µM (inactive)	> 100 µM (inactive)	> 100 µM (inactive)	> 100 µM (inactive)	> 100 µM (inactive)	> 100 µM (inactive)	> 100 µM (inactive)	
Cc1cc(Cl)ccc1NC1=NC(=O)C(CC(=O)Nc2ccc([N+](=O)[O-])cc2[N+](=O)[O-])S1 (centres undefined)				26.9 µM (inactive)	23.8 µM (inactive)	20.9 µM (inactive)	20.5 µM (inactive)	31.6 µM (inactive)	36.6 µM (inactive)	36.8 µM (inactive)	22.9 µM (inactive)	48.1 µM (inactive)	24.3 µM (inactive)	26.9 µM (inactive)	27.6 µM (inactive)	37 µM (inactive)	34.9 µM (inactive)
CC(=O)N(C(C)=O)c1c(N)n(C)c(=O)[nH]c1=O		> 100 µM (inactive)		> 100 µM (inactive)	> 100 µM (inactive)	> 100 µM (inactive)	> 100 µM (inactive)		> 100 µM (inactive)	> 100 µM (inactive)	> 100 µM (inactive)		> 100 µM (inactive)	> 100 µM (inactive)	> 100 µM (inactive)	> 100 µM (inactive)	> 100 µM (inactive)
Nc1ccc(Nc2nc(F)nc(-c3c4ccccc4c4n3CCS4)n2)cc1	14 µM (inactive)	6.18 µM (inactive)		15.4 µM (inactive)		16.2 µM (inactive)	14.1 µM (inactive)	16 µM (inactive)	19.1 µM (inactive)	15.8 µM (inactive)	15.7 µM (inactive)	19.6 µM (inactive)	13.4 µM (inactive)	15.5 µM (inactive)	> 10 µM (inactive)		10.4 µM (inactive)
COCC(C)(C)/N=C/N1Cc2cc3ccccc3nc2C1	> 100 µM (inactive)	> 100 µM (inactive)	> 100 µM (inactive)	> 100 µM (inactive)	> 100 µM (inactive)	> 100 µM (inactive)	> 100 µM (inactive)	93.8 µM (inactive)	> 100 µM (inactive)	> 100 µM (inactive)	> 100 µM (inactive)	> 100 µM (inactive)	> 100 µM (inactive)	> 100 µM (inactive)	> 100 µM (inactive)	> 100 µM (inactive)	
